Measured values as given in patent US11174267B2, “Spiroindolinones and therapeutic uses thereof” (The Regents of the University of California, priority 2015, dated 2021).
Where two headings read alike, the source gives them in different places.

Columns and labels:
C. albicans = assay: Drug susceptibility assay in combination with azole antifungals and other Cdr1/Mdr1 substrates; format: cell-based, Candida albicans; settings: for EC50 / MIC50: Candida albicans
Procedure: Drug susceptibility assay. All the assays were carried out with SC medium in 24-well plates. […] Plates were incubated at 30° C. for 15 h. Cell growth was measured by reading absorbance at 600 nm. […] EC50 values were calculated by nonlinear regression curve fit of log (concentration) versus the % cell growth.
Compound 1 was also studied to determine if it can synergize with all azole antifungals and non-azole drugs that are known Cdr1 substrates. […] The effective concentrations of the spiroindolinone used are at nM levels, much lower than that of substrates (azoles for example), therefore ruling out competitive inhibition as the mechanism. […] With further study it is possible to determine drug-target interaction sites on Cdr1.

[1] = tested on: susceptible strain (HLY4123) of C. albicans; assay: Dose-response with fluconazole (0.25 μg/mL) against susceptible strain; format: cell-based, Candida albicans; settings: Candida albicans, with fluconazole 0.25 μg/mL; strain HLY4123
Procedure: (§1) C. albicans was grown in SC medium overnight and then diluted to an effective OD600 of 0.0625. Serial ten-fold dilutions of the test compounds (0.15-1500 μM) were prepared in DMSO in 1.5 mL Eppendorf tubes. […] The plates were incubated in a rotary shaker/incubator at 30° C. for 16 h. The contents of each well was resuspended with a micropipettor and a 20 μL aliquot was added to a polystyrene cuvette and diluted with 680 μL of deionized water. The suspension was triturated again immediately before measuring the absorbance at 600 nm (OD600) for cell densities. EC50 values were determined by fitting to the Hill equation using the Excel-based tool ED50PLUS v1.0 (Mario H. Vargas) or using Mathematica. Similar procedures were used for Candida glabrata and Cryptococcus neoformans.

[2] = tested on: Resistant Candida albicans (clinical isolate-45); assay: EC50 in combination with fluconazole, resistant C. albicans; format: cell-based
Candida glabrata = assay: EC50 in combination with fluconazole, Candida glabrata; format: cell-based; settings: [fluconazole] = 128 μg/mL
Excerpt: (§2) Strains and growth condition. The wild-type Candida albicans strains used were SC5314 and CaSS1. Cdr1 heterozygous were from Merck Sharp & Dohme Corp. Double Barcoded (DBC) library of heterozygous Candida albicans mutants (version 2013A). Cdr1 deficient mutant was obtained by counterselection of the GRACE library strain on 5-Fluoroorotic Acid (5-FOA) containing plate. Clinical isolated resistant C. albicans were from Dr. David Rogers. Cryptococcus neoformans var. grubii H99 (ATCC 208821) and Candida glabrata BG2, a fluconazole-resistant clinical isolate, were used. Yeast strains were cultured at 30° C. in synthetic complete (SC) medium containing 2% glucose.
as §1
(§3) Because fungal drug-efflux ABC transporters are conserved, Cdr1 inhibitors that target the conserved regions of the pumps are expected to inhibit the drug efflux pumps in all fungi including C. albicans. […] Therefore, those spiroindolinones are candidates for combination antifungal therapy with azoles against invasive infections of not only C. albicans, but also other pathogenic fungi.

Cryptococcus neoformans = assay: EC50 in combination with fluconazole, Cryptococcus neoformans; format: cell-based; settings: [fluconazole] = 4 μg/mL
Excerpt: as §2, §1, §3

NIH 3T3 cells = assay: Cytotoxicity, LDH assay; format: cell-based; settings: concentrations up to 1.5 mM
Procedure: The cytotoxicity of spiroindoline Compounds 1, 8 and 25 were tested against NIH 3T3 cells at concentrations up to 1.5 mM (FIG. 13) using an LDH assay.

[3] = tested on: resistant clinical isolates of C. albicans; assay: Screen of resistant clinical isolates, single dose, broth microdilution (growth OD600); format: cell-based, Candida albicans; settings: compound 25 3 μM + fluconazole 64 μg/mL, 16 h
Excerpt: (Flowers, S. A., et al. Eukaryotic Cell 2012, 11, 1289-1299.) The strains grow at dramatically different rates.

[4] = tested on: C. albicans strain HLY4123 and clinical isolates 26 and 45; assay: Checkerboard assay (MIC90, FIC index); format: cell-based, Candida albicans; settings: for MIC90: Candida albicans; for FICI: Compound 25 + fluconazole
Procedure: Checkerboard assays were carried out using four 24-well plates. The results on each plate were normalized by duplication of one row and one column with a row and column on another plate. C. albicans was grown in SC medium overnight and then diluted to an effective OD600 of 0.0625. Serial ten-fold dilutions of the test compounds (150 mM) were prepared in DMSO in 1.5 mL Eppendorf tubes. […] Concentrations of compound in rows 1-11 varied from 300 μM to 0.0003 nM; the last row 12 contained no compound. […] The plates were incubated in a rotary shaker/incubator at 30° C. for 16 h. The contents of each well was resuspended with a micropipettor and a 20 μL aliquot was added to a polystyrene cuvette and diluted with 680 μL of deionized water. The suspension was triturated again immediately before measuring the absorbance at 600 nm. The MIC90 values were determined as the lowest concentrations of the drugs (alone or in combination) that inhibited fungal growth by 90% compared with that of the drug-free wells.
(§4) In all of the strains tested, the FIC index was below 0.5, fitting the classical definition of synergy.

[5] = Solubility limit in the checkerboard assay; format: physicochemical; settings: checkerboard assay medium
Excerpt: as §4

[6] = MDR1, with clotrimazole 0.221 μg/mL
[7] = MDR1, with fluconazole 0.500 μg/mL
[8] = MDR1, with itraconazole 0.004 μg/mL
[9] = MDR1, with ketoconazole 0.289 μg/mL
[10] = MDR1, with miconazole 0.031 μg/mL
[11] = MDR1, with vorizonazole 0.006 μg/mL

Cc1c(Cl)ccc2c1NC(=O)[C@]21N[C@H](Cc2ccccc2)[C@@H]2C(=O)N(c3ccc(F)cc3)C(=O)[C@@H]21 (racemic) [Compound 1, (±)-(3R,3′R,3a′R,6a'S)-3′-benzyl-6-chloro-5′-(4-fluorophenyl)-7-methyl-2′,3′,3a′,6a′-tetrahydro-4′H-spiro[indoline-3,1′-pyrrolo[3,4-c]pyrrole]-2,4′,6′(5′H)-trione]
EC50 (C. albicans; [6]): 500 nM
EC50 (C. albicans; [7]): 100 nM
EC50 (C. albicans; [8]): 700 nM
EC50 (C. albicans; [9]): 830 nM
EC50 (C. albicans; [10]): 990 nM
EC50 (C. albicans; [11]): 310 nM
MIC50 (C. albicans; with clotrimazole 0.221 μg/mL): 3.7 µM
MIC50 (C. albicans; with fluconazole 0.500 μg/mL): 1.3 µM
MIC50 (C. albicans; with itraconazole 0.004 μg/mL): 1.7 µM
MIC50 (C. albicans; with ketoconazole 0.289 μg/mL): 7.4 µM
MIC50 (C. albicans; with miconazole 0.031 μg/mL): 3.6 µM
MIC50 (C. albicans; with vorizonazole 0.006 μg/mL): 4.5 µM
susceptibility of C. albicans to azole antifungals (C. albicans; all azole antifungals tested): increase the susceptibility
growth inhibitory activity of cycloheximide (C. albicans; cycloheximide, substrate of the Cdr1 efflux pump): enhance the growth inhibitory activity
growth inhibitory activity of thiolutin (C. albicans; thiolutin, substrate of Mdr1): did not enhance the growth inhibitory activity
EC50 [1]: 11 nM
EC50 ([2]; C. albicans clinical isolate-45; [fluconazole] = 64 μg/mL; read-out: EC50 Resistant Candida albicans): 440 nM
EC50 (Candida glabrata): 640 nM
EC50 (Cryptococcus neoformans): > 30000 nM
cytotoxicity (NIH 3T3 cells): weak to negligible cytotoxicity

Cc1c(Cl)ccc2c1NC(=O)[C@@]21[C@H]2C(=O)N(c3ccccc3)C(=O)[C@H]2[C@H]2CN(C(=O)OCc3ccccc3)CCN21 (racemic) [Compound 25, (±)-benzyl (3R,3a′R,3b'S,9a'S)-6-chloro-7-methyl-1′,2,3′-trioxo-2′-phenyl-2′,3′,3a′,3b′,4′,6′,7′,9a′-octahydrospiro[indoline-3,9′-pyrrolo[3′,4′:3,4]pyrrolo[1,2-a]pyrazine]-5′(1′H)-carboxylate]
EC50 (C. albicans; [6]): 150 nM
EC50 (C. albicans; [7]): 11 nM
EC50 (C. albicans; MDR1, with isavuconazole 0.0006 μg/mL): 4 nM
EC50 (C. albicans; [8]): 190 nM
EC50 (C. albicans; [9]): 14 nM
EC50 (C. albicans; [10]): 240 nM
EC50 (C. albicans; [11]): 62 nM
MIC50 (C. albicans; with clotrimazole 0.221 μg/mL): 4.1 µM
MIC50 (C. albicans; with fluconazole 0.500 μg/mL): 0.84 µM
MIC50 (C. albicans; with isavuconazole 0.0006 μg/mL): 0.11 µM
MIC50 (C. albicans; with itraconazole 0.004 μg/mL): 2.5 µM
MIC50 (C. albicans; with ketoconazole 0.289 μg/mL): 2.3 µM
MIC50 (C. albicans; with miconazole 0.031 μg/mL): 25 µM
MIC50 (C. albicans; with vorizonazole 0.006 μg/mL): 1.9 µM
EC50 [1]: 0.3 nM
Growth (OD600) +Cpd25 + Fluc ([3]; clinical isolate 15): 2.64
Growth (OD600) +Cpd25 + Fluc ([3]; clinical isolate 16): 0.43
Growth (OD600) +Cpd25 + Fluc ([3]; clinical isolate 17): 0.79
Growth (OD600) +Cpd25 + Fluc ([3]; clinical isolate 21): 2.02
Growth (OD600) +Cpd25 + Fluc ([3]; clinical isolate 22): 1.28
Growth (OD600) +Cpd25 + Fluc ([3]; clinical isolate 23): 0.60
Growth (OD600) +Cpd25 + Fluc ([3]; clinical isolate 25): 1.59
Growth (OD600) +Cpd25 + Fluc ([3]; clinical isolate 26): 0.83
Growth (OD600) +Cpd25 + Fluc ([3]; clinical isolate 30): 5.38
Growth (OD600) +Cpd25 + Fluc ([3]; clinical isolate 33): 0.88
Growth (OD600) +Cpd25 + Fluc ([3]; clinical isolate 36): 1.07
Growth (OD600) +Cpd25 + Fluc ([3]; clinical isolate 41): 6.52
Growth (OD600) +Cpd25 + Fluc ([3]; clinical isolate 45): 1.03
Growth (OD600) +Cpd25 + Fluc ([3]; clinical isolate 49): 11.29
MIC90 ([4]; read-out: MICcpd (+Flc) (MIC90), clinical isolate 26, with fluconazole): 0.3 µM
MIC90 ([4]; read-out: MICcpd (+Flc) (MIC90), clinical isolate 45, with fluconazole): 0.03 µM
MIC90 ([4]; read-out: MICcpd (+Flc) (MIC90), strain HLY4123, with fluconazole): 0.03 µM
MIC90 ([4]; read-out: MICcpd (MIC90), clinical isolate 26, compound alone): > 30 µM
MIC90 ([4]; read-out: MICcpd (MIC90), clinical isolate 45, compound alone): > 30 µM
MIC90 ([4]; read-out: MICcpd (MIC90), strain HLY4123, compound alone): > 300 µM
FIC index ([4]; all of the strains tested, with fluconazole): below 0.5
toxicity of compound alone against the strains ([4]; alone, at the solubility limit, any of the strains): did not have measurable toxicity
FICI ([4]; clinical isolate 26): 0.14
FICI ([4]; clinical isolate 45): 0.13
FICI ([4]; strain HLY4123): 0.25
EC50 ([2]; read-out: EC50 Resistant Candida albicans; C. albicans clinical isolate-45; [fluconazole] = 64 μg/mL): 400 nM
EC50 (Candida glabrata): > 30000 nM
EC50 (Cryptococcus neoformans): 192 nM
solubility [5]: 30 to 300 µM
